Measurements from patent US20220031723A1, “POWDERED FOOD COMPOSITION COMPRISING ERIOCITRIN” (EUROMED, S.A., priority 2020, published 2022).
≈ marks a conversion by molar mass, not a printed value.

Key:
[1] = cited from earlier work; for water solubility: in water
[2] = Occurrence of plasma and urine metabolites in volunteers after consuming lemon or orange extract; format: in vivo, human; settings: human, in vivo
Source text: Through a targeted metabolomic strategy, a total of 17 metabolites were tentatively identified (Table 3). No hesperidin or eriocitrin-derived metabolites were detected in any volunteer at baseline. All the identified metabolites were detected at least in one volunteer, independently of the extract consumed, except for the metabolites M9 (eriodictyol sulfoglucuronide) and M11 (hesperetin sulfoglucuronide), which only were detected after consuming lemon and orange extract, respectively (Table 3). These representative EICs illustrate the metabolites identified in urine (F3 fraction) after consuming lemon (FIG. 3A) and orange (FIG. 3B) extracts, and plasma after consuming lemon (FIG. 3C) and orange (FIG. 3D) extracts. From the 17 metabolites, 16 were detected after consuming lemon extract (except M11), and 15 after consuming orange extract (except M9 and M10 in urine, and M9 and M12 in plasma) (Table 3).

[3] = Urinary excretion of quantified metabolites in collected fractions after extract intake; format: in vivo, human; settings: mean ± SD; for Metabolite quantified in urine fraction F1: fraction 0 to 4 h; for Metabolite quantified in urine fraction F2: fraction 4 to 8 h; for Metabolite quantified in urine fraction F3: fraction 8 to 10 h; for Metabolite quantified in urine fraction F4: fraction collected at 24 h (10-24 h); for Metabolite quantified in urine, Total F (24 h): sum of fractions F1-F4
Procedure: Table 4 and Table 5 show the urinary excretion of quantified metabolites at the different fractions collected, i.e., 0-4 h (F1), 4-8 h (F2), 8-10 h (F3), and 10-24 h (F4), after extracts intake.

Row | SMILES | solubility in water [1] | water solubility [1] | Occurrence Plasma LE (number of volunteers in whom metabolite was detected) [2] | Occurrence Plasma LE (second column so headed; number of volunteers in whom metabolite was detected) [2] | Occurrence Urine LE (number of volunteers in whom metabolite was detected) [2] | Occurrence Urine LE (second column so headed; number of volunteers in whom metabolite was detected) [2] | Metabolite quantified in urine fraction F1 ([3]; after consuming lemon extract) | Metabolite quantified in urine fraction F2 ([3]; after consuming lemon extract) | Metabolite quantified in urine fraction F3 ([3]; after consuming lemon extract) | Metabolite quantified in urine fraction F4 ([3]; after consuming lemon extract) | Metabolite quantified in urine, Total F (24 h) ([3]; after consuming lemon extract) | Metabolite quantified in urine fraction F1 ([3]; after consuming orange extract) | Metabolite quantified in urine fraction F2 ([3]; after consuming orange extract) | Metabolite quantified in urine fraction F3 ([3]; after consuming orange extract) | Metabolite quantified in urine fraction F4 ([3]; after consuming orange extract) | Metabolite quantified in urine, Total F (24 h) ([3]; after consuming orange extract)
1 | COc1ccc([C@@H]2CC(=O)c3c(O)cc(O[C@@H]4O[C@H](CO[C@@H]5O[C@@H](C)[C@H](O)[C@@H](O)[C@H]5O)[C@@H](O)[C@H](O)[C@H]4O)cc3O2)cc1O [hesperidin, Hesperidin, reference compound] | 5 micrograms/ml | 4.9 µg/mL (≈ 8.03 µM) | – | – | – | – | – | – | – | – | – | – | – | – | – | –
2 | C[C@@H]1O[C@@H](OC[C@H]2O[C@@H](Oc3cc(O)c4c(c3)O[C@H](c3ccc(O)c(O)c3)CC4=O)[C@H](O)[C@@H](O)[C@@H]2O)[C@H](O)[C@H](O)[C@H]1O [eriocitrin, Eriocitrin] | 4000 micrograms/ml | about 40 mg/ml | – | – | – | – | – | – | – | – | – | – | – | – | – | –
3 | O=C1C[C@@H](c2ccc(O)cc2)Oc2cc(O[C@@H]3O[C@H](C(=O)O)[C@@H](O)[C@H](O)[C@H]3O)cc(O)c21 [M3, Naringenin 7-O-glucuronide] | – | – | 16 | 14 | 16 | 16 | 1.0 ± 0.7 μg/mg creatinine | 2.6 ± 4.0 μg/mg creatinine | 1.7 ± 1.9 μg/mg creatinine | 0.3 ± 0.3 μg/mg creatinine | 5.7 ± 6.9 μg/mg creatinine | 0.1 ± 0.1 μg/mg creatinine | 0.2 ± 0.6 μg/mg creatinine | 0.2 ± 0.2 μg/mg creatinine | 0.2 ± 0.3 μg/mg creatinine | 0.7 ± 1.5 μg/mg creatinine
